# Reference: US20090264483A1, “METHODS OF USING PPAR-gamma AGONISTS AND CASPASE-DEPENDENT CHEMOTHERAPEUTIC AGENTS FOR THE TREATMENT OF CANCER” (CEDARS-SINAI MEDICAL CENTER, priority 2006, published 2009)
# d = 2'-deoxy (DNA); r = 2'-OH (RNA)
# B1: TRAIL: Recombinant human tumor necrosis factor-related apoptosis-inducing ligand, obtained from Pepro-Tech (protein, UniProt P50591 1-281, looked up)
# Tumor necrosis factor ligand …: MAMMEVQGGPSLGQTCVLIVIFTVLLQSLCVAVTYVYFTNELKQMQDKYSKSGIACFLKEDDSYWDPNDEESMNSPCWQVKWQLRQLVRKMILRTSEETISTVQEKQQNISPLVRERGPQRVAAHITGTRGRSNTLSSPNSKNEKALGRKINSWESSRSGHSFLSNLHLRNGELVIHEKGFYYIYSQTYFRFQEEIKENTKNDKQMVQYIYKYTSYPDPILLMKSARNSCWSKDAEYGLYSIYQGGIFELKENDRIFVSVTNEHLIDMDHEASFFGAFLVG
# Legend:
# Assay type in all cases: cell-based, human
# [1] = tested on: LN-18, U-87MG, and MG-328 glioma cells; experiment: Cell viability assay (Ann/PI staining, FACS) with TRAIL
# Experimental: (§1) Treatment of cells with TG, GW, PTPI, and/or SHPI for 24 h was followed by treatment with rTRAIL, VP16 or Taxol, and all the cells, including cells that had not adhered, were harvested after 24 h (48 h). An annexin V-fluorescein isothiocyanate apoptosis detection kit I (Pharmingen) was used for viability assay of the cells. Cells were stained with annexin V-fluorescein isothiocyanate (Ann) and propidium iodide (PI) according to the manufacturer's protocol and were analyzed by FACS (Pharmingen). Cells that stained negative for both Ann and PI were defined as viable cells for viability assay.
# caspase-3, -8, and -9 [2] = experiment: Caspase activity assay in TRAIL-treated glioma cells
# Experimental: (§2) Activity of caspase-3, -8, and -9 was measured using caspase-3/CPP32, FLICE/caspase-8, and APOPCYTO/caspase-9 […] assay kits, respectively, from Medical and Biological Laboratories Co. (Nagoya, Japan). Briefly, the treatment of cells with TG, GW, and/or PTPI for 24 h was followed by treatment with rTRAIL, VP 16 or Taxol. After 2 h (24 h) of treatment, all the cells were harvested, and samples were extracted with Cell Lysis Buffer. Concurrently, a sample for a negative control was extracted from the cells without apoptosis induction. A standard curve using the absorbance of p-nitroanilide standards was constructed, and then the specific activities on each sample were calculated according to the manufacturer's protocol.
# [3] = tested on: STAT3, pY705-STAT3, FLIP, Bcl-2, Bax, pS392-p53, PTP1B, SHP-1; experiment: Western blot of glioma cell protein extracts
# Excerpt: Rabbit polyclonal Abs against DR4, DR5, and PPARγ were obtained from Cayman Chemical. Mouse monoclonal Abs against STAT3, phosphotyrosine 705 STAT3 (pY705-STAT3), which is an activated form of STAT3, Bax, and Bcl-2 were obtained from Pharmingen. Rabbit polyclonal Abs against p53 and phosphor-Ser-392-p53 (pS392-p53) were obtained from Cell Signaling Technology (Beverly, Mass.). Mouse monoclonal Abs against PTP1B (PTPase1B; AE4-2J) and Src homology 2-containing PTP-1 (SHP1; 1SH01) and rabbit polyclonal Ab against FLIP were obtained from Calbiochem. Mouse monoclonal Ab of β-tubulin was obtained from Sigma. Horseradish peroxidase-linked Abs of sheep anti-mouse IgG and donkey anti-rabbit IgG were obtained from Amersham Biosciences.
# Samples were extracted with buffer containing 1% Triton X-100, 150 mM NaCl, 50 mM Tris (pH 7.5), and 1 mM phenylmethylsulfonyl fluoride (Roche Applied Science) and were subjected to SDS-PAGE with 30 μg of general protein loading into each lane on a 10% polyacrylamide gel. Electrophoretic transfer to nitrocellulose membranes (Amersham Biosciences) was followed by immunoblotting. The signal was detected by using an ECL detection system (Amersham Biosciences).
# U-87MG cells = experiment: Cell viability assay (Ann/PI staining, FACS) with VP16 or Taxol; conditions: for proliferation of cells in the control group (no TG or PTPI): 5-day cell cultures, U-87MG (not shown)
# Experimental: as §1
# (§3) Based on this hypothesis, a determination was sought whether TG enhances the cytotoxic activities of etoposide (VP16) and paclitaxel (Taxol), which are known to involve activation of caspase-2, -8, -9, and -10 during their apoptosis induction (Lin et al. (2004) J. Biol. Chem. 279, 40755-40761.; Perkins et al. (2000) Cancer Res. 60, 1645-1653.; Park et al. (2004) J. Biol. Chem. 279, 51057-51067.). To confirm this, treatment of U-87MG with TG and/or PTPI was followed by treatment with VP16 (0.01-10 μM) or Taxol (0.005-5 μM). The cells were then subjected to cell viability (FIGS. 7, A and B) and caspase activity assays (FIGS. 7, C and D).
# caspase-3, -8, and -9 [4] = experiment: Caspase activity assay in U-87MG treated with VP16 or Taxol; conditions: PTPI 50 μM and TG 30 μM for 24 h, then VP16 10 μM or Taxol 5 μM
# Experimental: as §2, §3
# STAT3 mRNA = experiment: Real time quantitative RT-PCR; conditions: LN-18; STAT3-siRNA 50-600 pmol; 24 h after transfection; dose-dependent
# Experimental: DNA amplification was performed using an […] […] ID NO: 3), STAT3 reverse, [NT] ID NO: 4); and β-actin forward, [NT] ID NO: 5), β-actin reverse, [NT] ID NO: 6).
# LN-18 = experiment: Annexin V apoptosis detection (FACS) after TRAIL treatment; conditions: TRAIL 300 ng/ml
# Experimental: as §1, with “Treatment of cells with TG, GW, PTPI, and/or SHPI for 24 h was followed by treatment with rTRAIL, VP16 or Taxol, and all the cells, including cells that had not adhered, were harvested after 24 h (48 h).” left out
# To examine the mechanism that causes resistance to TRAIL, glioma cell lines were used that are partially resistant to TRAIL despite their expression of DR4 and/or DR5. Western blot was used to detect the expression levels of DR4 and DR5 in LN-18, U-87MG, and MG-328 (FIG. 1A). The cytotoxic activity of TRAIL (18.75-300 ng/ml) was examined in each glioma (FIGS. 1, B and C). […] These findings indicate that these gliomas can acquire a resistance to TRAIL despite their expression of functionally intact DR4/5.
# [5] = SHPI 200 μM and TG 30 μM, then rTRAIL (not shown)
# [6] = STAT3-siRNA-transfected glioma cells
molecule,measurement,setting,value
"O=C(Nc1ccccc1)c1cc([N+](=O)[O-])ccc1Cl [GW, GW9662]",effect on the activity of TG in TRAIL-treated glioma cells (cell viability),"[1]; GW 20 μM and TG 30 μM for 24 h, then rTRAIL 100 ng/ml for 24 h",not blocked
same,effect on the specific activities of caspases in TG/TRAIL-treated cells,"caspase-3, -8, and -9 [2]; GW 20 μM and TG 30 μM for 24 h, then rTRAIL 100 ng/ml for 2 h",did not reduce
same,pY705-STAT3 expression in cells treated with TG and GW,[3]; GW 20 μM and TG 30 μM for 24 h,down-regulation of pY705-STAT3 was observed
same,effect on the up-regulation of pS392-p53 induced by TG,"[3]; GW 20 μM and TG 30 μM for 24 h, LN-18 and U-87MG",abrogated
same,effect on the up-regulation of Bax found in TG-treated cells,"[3]; GW 20 μM and TG 30 μM for 24 h, U-87MG",inhibited
"O=C(CBr)c1ccc(O)cc1 [PTPI, α-bromo-4-hydroxyacetophenone]",effect on the effect of TG on TRAIL (cell viability),"[1]; PTPI 50 μM and TG 30 μM, then rTRAIL 100 ng/ml (not shown)",abrogated
same,inhibition of the cytotoxic activity in TG-treated cells with VP16 or Taxol,"U-87MG cells; U-87MG, PTPI 50 μM and TG 30 μM for 24 h, then VP16 or Taxol",limited effect
same,effect on the effect of TG on TRAIL (caspase activity),"caspase-3, -8, and -9 [2]; PTPI 50 μM and TG 30 μM, then rTRAIL 100 ng/ml for 2 h",abrogated
same,effect on the effect of TG on the activity of caspase-8 and -9,"caspase-3, -8, and -9 [4]",completely abrogated
same,inhibition of caspase-3 activity in TG-treated cells with VP16 or Taxol,"caspase-3, -8, and -9 [4]",limited effect
same,effect on the inhibitory effect of TG on pY705-STAT3,[3]; PTPI 50 μM and TG 30 μM for 24 h,abrogated
same,effect on the upregulation of pS392-p53 caused by TG,"[3]; PTPI 50 μM and TG 30 μM for 24 h, LN-18 and U-87MG",did not inhibit
"O=C(O)COc1ccc(C(=O)CBr)cc1 [SHPI, α-bromo-4-carboxymethoxyacetophenone]",effect on the effect of TG on TRAIL (cell viability),[1]; [5],did not abrogate
same,effect on the effect of TG on TRAIL (caspase activity),"caspase-3, -8, and -9 [2]; [5]",did not abrogate
same,effect on the downregulation of pY705-STAT3 induced by TG,[3]; SHPI 200 μM and TG 30 μM for 24 h,did not inhibit
"Cc1c(C)c2c(c(C)c1O)CCC(C)(COc1ccc(CC3SC(=O)NC3=O)cc1)O2 (centres unmarked) [TG, troglitazone]",effect on the cytotoxic activity of TRAIL,"[1]; TG 30 μM for 24 h, then rTRAIL 100 ng/ml for 24 h, LN-18, U-87MG and MG-328",significantly enhance
same,effect on the cytotoxic activity of Taxol (cell viability),"U-87MG cells; U-87MG, TG 30 μM for 24 h, then Taxol 0.005-5 μM for 48 h",positive activities
same,effect on the cytotoxic activity of VP16 (cell viability),"U-87MG cells; U-87MG, TG 30 μM for 24 h, then VP16 0.01-10 μM for 48 h",positive activities
same,time at which down-regulation of pY705-STAT3 was noticeable,[3]; TG 30 μM,8 h
same,STAT3 expression levels,"[3]; TG 30 μM, LN-18, U-87MG, MG-328",no effect
same,time at which 42 kDa PTP1B expression reached maximum levels,"[3]; TG 30 μM, all gliomas",16 to 32 h
same,time of start of up-regulation of the activated form of PTP1B (42 kDa) after treatment,"[3]; TG 30 μM, all gliomas",≤ 4 h
"CC(=O)O[C@H]1C(=O)[C@@]2(C)[C@H]([C@H](OC(=O)c3ccccc3)[C@]3(O)C[C@H](OC(=O)[C@H](O)[C@@H](NC(=O)c4ccccc4)c4ccccc4)C(C)=C1C3(C)C)[C@]1(OC(C)=O)CO[C@@H]1C[C@@H]2O [Taxol, paclitaxel]",proliferation of cells in the control group (no TG or PTPI),U-87MG cells; Taxol 5 μM,maintained an ability to proliferate
"COc1cc([C@@H]2c3cc4c(cc3[C@@H](O[C@@H]3O[C@@H]5CO[C@@H](C)O[C@H]5[C@H](O)[C@H]3O)[C@H]3COC(=O)[C@H]23)OCO4)cc(OC)c1O [VP16, Etoposide]",proliferation of cells in the control group (no TG or PTPI),U-87MG cells; VP16 10 μM,maintained an ability to proliferate
"STAT3-siRNA: double-stranded siRNA oligonucleotide against STAT3 (SEQ ID NO: 1 and 2), Dharmacon (chain 1 AACAUCUGCCUAGAUCGGCUATT; chain 2 UAGCGGAUCUAGGCAGAUG; chain 1: sugars from the 5' end r21 d2, backbone not given here; chain 2: RNA, 3' dTdT, backbone not given here)",effect on the cytotoxic effect of TRAIL,"[1]; STAT3-siRNA 600 pmol, then TRAIL 100 ng/ml for 24 h",significantly enhanced
same,"apoptotic death of glioma cells, agent alone","[1]; STAT3-siRNA 600 pmol, without rTRAIL",did not induce their apoptotic death
same,"specific activities of caspases-3, -8, and -9","caspase-3, -8, and -9 [2]; STAT3-siRNA 600 pmol, then TRAIL 100 ng/ml for 2 h",significantly increased
same,inhibitory effect of PTPI on TG in transfected glioma cells (caspase activity),"caspase-3, -8, and -9 [2]; STAT3-siRNA 600 pmol, cells treated with TG, PTPI and TRAIL",negated
same,STAT3 protein expression,"[3]; LN-18, STAT3-siRNA 50-600 pmol, 24 h after transfection, dose-dependent",decreased
same,Bax expression levels,[3]; [6],not altered
same,FLIP and Bcl-2 expression levels,[3]; [6],decreased
same,pY705-STAT3 expression,[3]; [6],down-regulated
same,STAT3 mRNA expression,STAT3 mRNA,decreased
B1,percentage of Ann(+) PI(−) cells (early stage of apoptosis),LN-18; after 2 h of treatment,33.7%
same,percentage of Ann(+) PI(−) cells (early stage of apoptosis),LN-18; after 24 h of treatment,60.1%
same,cell death,"[1]; 300 ng/ml TRAIL, after 24 h of treatment, LN-18, U-87MG, MG-328",40-60%
same,cells killed by TRAIL in the STAT3-siRNA-transfected group,"[1]; TRAIL 100 ng/ml, 72-h cell culture, each glioma (not shown)",more than 95%
same,proliferative ability of the viable cells,[1]; after 72 h of cell culture with 300 ng/ml TRAIL (not shown),maintained a proliferative ability
